According to article doi:10.1101/2023.07.10.548257 (bioRxiv, 2024):

Molecular target: T1, full-length SHP2^R138Q (Homo sapiens, UniProt Q06124, R138Q)
T1 construct: Full-length SHP2 constructs were diluted in assay buffer; His6-TEV (N, cleaved yes); made in house; host or cells: E. coli BL21(DE3)
T1 sequence (Q06124 1-593 R138Q): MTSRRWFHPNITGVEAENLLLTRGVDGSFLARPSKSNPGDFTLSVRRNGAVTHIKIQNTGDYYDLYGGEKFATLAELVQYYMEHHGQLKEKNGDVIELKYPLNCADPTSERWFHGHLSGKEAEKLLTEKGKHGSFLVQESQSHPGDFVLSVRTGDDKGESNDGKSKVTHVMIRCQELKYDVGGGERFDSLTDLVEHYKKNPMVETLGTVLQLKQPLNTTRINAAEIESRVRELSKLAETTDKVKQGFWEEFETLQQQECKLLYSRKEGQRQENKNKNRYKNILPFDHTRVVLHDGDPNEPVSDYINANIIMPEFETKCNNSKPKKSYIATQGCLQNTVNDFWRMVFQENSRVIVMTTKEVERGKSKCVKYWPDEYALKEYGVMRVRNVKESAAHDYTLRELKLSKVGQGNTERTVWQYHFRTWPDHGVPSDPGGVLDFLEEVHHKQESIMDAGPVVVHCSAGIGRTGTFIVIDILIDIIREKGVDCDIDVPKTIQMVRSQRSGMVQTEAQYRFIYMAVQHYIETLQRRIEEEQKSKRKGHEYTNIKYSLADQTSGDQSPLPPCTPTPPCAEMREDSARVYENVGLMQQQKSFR
Assay: SHP2 activation assay using phosphopeptides (DiFMUP), SHP2 R138Q
Type: biochemical
Conditions: activation of full-length SHP2 R138Q (0.05 nM) by phosphopeptide; DiFMUP substrate; HEPES pH 7.2 assay buffer; mean of N (column N)
Method: Emitted fluorescence at 455nm was recorded every 25 seconds in a span of 50 minutes using a BioTek Synergy Neo2 multi-mode reader. […]
In all cases, the linear region of the reaction progress curve was determined by visual inspection and fit to a line. These slopes were converted from absorbance or fluorescence units as a function of time to product formation as a function of time using standard curves measured with the reaction products (p-nitrophenol and 6,8-difluoro-7-hydroxy-4-methylcoumarin). […]
SHP2 activation assays using phosphopeptides
Full-length SHP2 constructs were diluted in assay buffer (60 mM HEPES pH 7.2, 75 mM KCl, 75 mM NaCl,1 mM EDTA, 0.05% Tween-20, with 0.5 mM TCEP freshly added) to a 2X concentration of 0.1 nM. Peptides were serially diluted in assay buffer, with the last point of the concentration series fully without peptide. 15 μL of peptide and 15 μL of 800 μM DiFMUP was added to a black 96-well half area plate. Right before starting the plate reader assay, 30 μL SHP2 was added to each well a Supplementary Information - page 4 of 18 […]
final concentration of 0.05nM. Kinetic measurements (Ex 358/Em […]) were taken on a BioTek Neo2 plate reader every 25 seconds for 6 minutes.
Cloning of the PD-1 ITIM scanning mutagenesis library […]
described previously for other peptide display libraries in the eCPX system (2, 4). A series of oligonucleotides spanning the peptide-coding sequence was synthesized with a different NNS codon in place of each wild-type codon (11 oligonucleotides in total). These degenerate primers were pooled then used to amplify a library of linear DNA encoding mutant ITIM fusions to the eCPX scaffold protein.
This library was then cloned into the pBAD33 vector used for surface display.
SH2 specificity profiling using bacterial peptide display
Preparation of bacterial cells
Electrocompetent MC1061 cells were transformed with ~100 ng of the respective library. After 1 hour recovery in 1 mL LB, cells were further diluted into 250 mL LB + 0.1% chloramphenicol. 1.8 mL of overnight culture was used to inoculate 100 mL LB + 0.1% chloramphenicol, and grown until OD600 reached 0.5. 20 mL of cell suspension was induced at 25 °C using a final concentration of 0.4% arabinose until the OD600 ~ 1 (after approximately 4 hours). The cells were spun down at 4000 rpm for 15 minutes, and the pellet was resuspended in PBS so that the OD600 ~1.5. The cells were stored in the fridge and used within a week.
For each sample, 75 μL of Dynabeads™ FlowComp™ Flexi Kit were washed twice in 1 mL SH2 buffer (50 mM HEPES pH 7.5, 150 mM NaCl, 1 mM TCEP, and 0.2% BSA) on a magnetic rack.
The beads were then resuspended in 75 μL of SH2 buffer. SH2 domains were thawed quickly and 20 μM of protein was added to the beads. SH2 buffer was added up to 150 μL, and the suspension was incubated for 1 hour at 4 °C while rotating. After 1 hour, the suspension was placed on a magnetic rack and washed twice with 1 mL SH2 buffer.
Preparing the phosphorylated cells
150 μL of prepared cells per sample were spun down for 4000 rpm for 5 minutes at 4 °C.
Kinase screen buffer was prepared (50 mM Tris, 10 mM magnesium chloride, 150 mM sodium chloride; add 2 mM sodium orthovanadate and 1 mM TCEP fresh) and the cells of each sample were resuspended in 100 μL kinase screen buffer. Kinases c-Src, c-Abl, AncSZ, Eph1B were added to a final concentration of 2.5 µM each, creatine phosphate was added to a final concentration of 5 mM, and phosphokinase was added to a final concentration of 50 µg/mL. The suspension was incubated at 37 °C for 5 minutes before ATP was added to a final concentration of 1 mM. This mixture was incubated at 37 °C for 3 hours. After 3 hours, EDTA was added to a final concentration of 25 mM to quench the reaction. The input library control sample was not phosphorylated. These cells were spun down at 4000 rpm for 15 minutes at 4 °C. The cells were then resuspended in 100 µL of SH2 buffer […]

Compared with CC[C@H](C)[C@H](NC(=O)[C@@H](NC(=O)[C@H](C)NC(=O)[C@H](Cc1ccc(OP(=O)(O)O)cc1)NC(=O)[C@@H](NC(=O)[C@@H]1CCCN1C(=O)[C@H](CCC(=O)O)NC(=O)[C@@H]1CCCN1C(=O)[C@H](CO)NC(=O)[C@@H](NC(C)=O)C(C)C)[C@@H](C)CC)[C@@H](C)O)C(=O)N[C@@H](CC(=O)O)C(=O)N[C@@H](CC(=O)O)C(=O)N[C@@H](CC(C)C)C(N)=O, CC[C@H](C)[C@H](NC(=O)[C@@H](NC(=O)[C@H](C)NC(=O)[C@H](Cc1ccc(OP(=O)(O)O)cc1)NC(=O)[C@H](CCC(=O)O)NC(=O)[C@@H](NC(=O)[C@H](CCC(N)=O)NC(=O)[C@H](CCC(=O)O)NC(=O)[C@@H]1CCCN1C(=O)[C@@H](NC(C)=O)C(C)C)[C@@H](C)O)[C@@H](C)O)C(=O)N[C@H](C(=O)N[C@@H](Cc1ccccc1)C(=O)N1CCC[C@H]1C(N)=O)C(C)C is 4.4-fold lower in EC50: 27.3 µM for the first, 6.26 µM for the second. The second is the more potent here.

First: CC(=O)N[C@@H](CO)C(=O)N[C@H](C(=O)NCC(=O)N[C@@H](CO)C(=O)N[C@H](C(=O)N[C@@H](CC(=O)O)C(=O)N[C@@H](Cc1ccc(OP(=O)(O)O)cc1)C(=O)N[C@@H](CC(C)C)C(=O)N[C@@H](C)C(=O)N[C@@H](CC(C)C)C(=O)N[C@@H](CC(=O)O)C(=O)N[C@@H](Cc1ccccc1)C(=O)N[C@@H](CCC(N)=O)C(N)=O)C(C)C)[C@@H](C)O
Second: CC(=O)N[C@@H](C)C(=O)N[C@@H](CCCCN)C(=O)N[C@@H](CO)C(=O)NCC(=O)N[C@@H](C)C(=O)N[C@H](C(=O)N[C@@H](Cc1ccc(OP(=O)(O)O)cc1)C(=O)N[C@@H](CO)C(=O)N[C@@H](CCC(=O)O)C(=O)N[C@@H](CC(C)C)C(=O)N[C@@H](CC(N)=O)C(=O)N[C@@H](Cc1ccccc1)C(=O)NCC(N)=O)C(C)C
The EC50 of the first is 28-fold lower: 5.98 µM for the first, 166 µM for the second. The first is the more potent here.

First: CC[C@H](C)[C@H](NC(=O)[C@H](Cc1ccc(OP(=O)(O)O)cc1)NC(=O)[C@H](CC(N)=O)NC(=O)[C@H](CC(C)C)NC(=O)CNC(=O)[C@H](CC(N)=O)NC(=O)[C@H](CCC(=O)O)NC(=O)[C@H](CC(C)C)NC(C)=O)C(=O)N[C@@H](CC(=O)O)C(=O)N[C@@H](CC(C)C)C(=O)N[C@@H](CC(=O)O)C(=O)N[C@@H](CC(C)C)C(=O)N[C@H](C(N)=O)C(C)C
Second: CC[C@H](C)[C@H](NC(=O)[C@H](CC(=O)O)NC(=O)[C@H](C)NC(=O)[C@H](Cc1ccc(OP(=O)(O)O)cc1)NC(=O)[C@H](CCCCN)NC(=O)[C@@H](NC(=O)[C@H](CC(=O)O)NC(=O)CNC(=O)[C@H](CCCCN)NC(=O)[C@H](CCSC)NC(C)=O)C(C)C)C(=O)N[C@@H](CCC(=O)O)C(=O)N[C@@H](CO)C(=O)N[C@@H](CO)C(N)=O
The EC50 of the first is 84-fold lower: 1.43 µM for the first, 120 µM for the second.

Compared with CC[C@H](C)[C@H](NC(=O)[C@H](CC(N)=O)NC(=O)[C@@H](NC(=O)[C@H](Cc1ccc(OP(=O)(O)O)cc1)NC(=O)[C@H](CCC(=O)O)NC(=O)CNC(=O)[C@@H]1CCCN1C(=O)[C@H](CO)NC(=O)[C@H](CCCCN)NC(=O)[C@@H]1CCCN1C(C)=O)C(C)C)C(=O)N[C@@H](CCC(=O)O)C(=O)N[C@@H](Cc1ccccc1)C(=O)NCC(N)=O, CC(=O)N1CCC[C@H]1C(=O)N[C@H](C(=O)N[C@@H](Cc1ccccc1)C(=O)N[C@@H](CO)C(=O)N[C@H](C(=O)N[C@@H](CC(=O)O)C(=O)N[C@@H](Cc1ccc(OP(=O)(O)O)cc1)C(=O)NCC(=O)N[C@@H](CCC(=O)O)C(=O)N[C@@H](CC(C)C)C(=O)N[C@@H](CC(=O)O)C(=O)N[C@@H](Cc1ccccc1)C(=O)N[C@@H](CCC(N)=O)C(N)=O)C(C)C)C(C)C is 4.5-fold lower in EC50: 29.6 µM for the first, 6.55 µM for the second.

Work on CSCC[C@H](NC(=O)[C@H](CC(C)C)NC(=O)[C@H](CCC(N)=O)NC(=O)[C@H](C)NC(=O)[C@H](Cc1ccc(OP(=O)(O)O)cc1)NC(=O)[C@H](CC(N)=O)NC(=O)[C@H](CC(C)C)NC(=O)[C@H](C)NC(=O)[C@H](C)NC(=O)[C@H](CCCCN)NC(=O)[C@H](CCCCN)NC(C)=O)C(=O)N[C@@H](Cc1ccccc1)C(=O)N1CCC[C@H]1C(N)=O yielded an EC50 of 4.2 µM.
